Measured values taken from ChEMBL document CHEMBL5465560, “Selectivity Literature for EUbOPEN Chemogenomic Library” (2024).

Assays:
[1] = biological target: T1, Dual serine/threonine and tyrosine protein kinase (Homo sapiens) (UniProt Q6XUX3); assay: Selectivity interaction (KinomeScan (DiscoverX)) EUB0000229b DSTYK; settings: at 10 µM
T1 sequence (whole entry): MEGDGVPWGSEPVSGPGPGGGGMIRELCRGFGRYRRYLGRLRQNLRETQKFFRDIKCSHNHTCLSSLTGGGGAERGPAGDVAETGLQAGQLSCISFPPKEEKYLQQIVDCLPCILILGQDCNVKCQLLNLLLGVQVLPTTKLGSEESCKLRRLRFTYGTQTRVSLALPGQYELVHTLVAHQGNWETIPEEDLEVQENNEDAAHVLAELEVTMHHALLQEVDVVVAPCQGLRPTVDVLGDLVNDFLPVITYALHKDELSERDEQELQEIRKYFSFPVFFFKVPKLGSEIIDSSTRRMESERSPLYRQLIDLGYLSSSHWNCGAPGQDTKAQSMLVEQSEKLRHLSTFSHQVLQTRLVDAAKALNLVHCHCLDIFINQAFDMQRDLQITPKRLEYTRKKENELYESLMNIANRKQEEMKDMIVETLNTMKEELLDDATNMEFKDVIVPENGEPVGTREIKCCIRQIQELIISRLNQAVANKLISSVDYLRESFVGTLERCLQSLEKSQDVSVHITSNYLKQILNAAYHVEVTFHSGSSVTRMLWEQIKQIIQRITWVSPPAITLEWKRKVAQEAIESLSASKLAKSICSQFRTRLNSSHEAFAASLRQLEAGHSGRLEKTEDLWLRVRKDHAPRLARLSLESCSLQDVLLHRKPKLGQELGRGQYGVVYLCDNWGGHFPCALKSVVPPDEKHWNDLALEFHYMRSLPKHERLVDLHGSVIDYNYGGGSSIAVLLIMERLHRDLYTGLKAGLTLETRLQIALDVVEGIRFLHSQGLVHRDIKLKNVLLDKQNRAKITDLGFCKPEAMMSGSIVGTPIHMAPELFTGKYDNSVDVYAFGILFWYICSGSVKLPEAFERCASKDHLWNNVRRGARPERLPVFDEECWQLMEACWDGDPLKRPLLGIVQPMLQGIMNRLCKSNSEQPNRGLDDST

[2] = biological target: Myosin light chain kinase, smooth muscle (Homo sapiens, UniProt Q15746); assay: Selectivity interaction (KinomeScan (DiscoverX)) EUB0000092b MYLK; settings: at 10 µM
[3] = biological target: Receptor tyrosine-protein kinase erbB-2 (Homo sapiens, UniProt P04626); assay: Selectivity interaction (KinomeScan (DiscoverX)) EUB0000655a ERBB2; settings: at 10 µM
Chain of Receptor tyrosine-protein kinase erbB-2 (P04626 whole entry): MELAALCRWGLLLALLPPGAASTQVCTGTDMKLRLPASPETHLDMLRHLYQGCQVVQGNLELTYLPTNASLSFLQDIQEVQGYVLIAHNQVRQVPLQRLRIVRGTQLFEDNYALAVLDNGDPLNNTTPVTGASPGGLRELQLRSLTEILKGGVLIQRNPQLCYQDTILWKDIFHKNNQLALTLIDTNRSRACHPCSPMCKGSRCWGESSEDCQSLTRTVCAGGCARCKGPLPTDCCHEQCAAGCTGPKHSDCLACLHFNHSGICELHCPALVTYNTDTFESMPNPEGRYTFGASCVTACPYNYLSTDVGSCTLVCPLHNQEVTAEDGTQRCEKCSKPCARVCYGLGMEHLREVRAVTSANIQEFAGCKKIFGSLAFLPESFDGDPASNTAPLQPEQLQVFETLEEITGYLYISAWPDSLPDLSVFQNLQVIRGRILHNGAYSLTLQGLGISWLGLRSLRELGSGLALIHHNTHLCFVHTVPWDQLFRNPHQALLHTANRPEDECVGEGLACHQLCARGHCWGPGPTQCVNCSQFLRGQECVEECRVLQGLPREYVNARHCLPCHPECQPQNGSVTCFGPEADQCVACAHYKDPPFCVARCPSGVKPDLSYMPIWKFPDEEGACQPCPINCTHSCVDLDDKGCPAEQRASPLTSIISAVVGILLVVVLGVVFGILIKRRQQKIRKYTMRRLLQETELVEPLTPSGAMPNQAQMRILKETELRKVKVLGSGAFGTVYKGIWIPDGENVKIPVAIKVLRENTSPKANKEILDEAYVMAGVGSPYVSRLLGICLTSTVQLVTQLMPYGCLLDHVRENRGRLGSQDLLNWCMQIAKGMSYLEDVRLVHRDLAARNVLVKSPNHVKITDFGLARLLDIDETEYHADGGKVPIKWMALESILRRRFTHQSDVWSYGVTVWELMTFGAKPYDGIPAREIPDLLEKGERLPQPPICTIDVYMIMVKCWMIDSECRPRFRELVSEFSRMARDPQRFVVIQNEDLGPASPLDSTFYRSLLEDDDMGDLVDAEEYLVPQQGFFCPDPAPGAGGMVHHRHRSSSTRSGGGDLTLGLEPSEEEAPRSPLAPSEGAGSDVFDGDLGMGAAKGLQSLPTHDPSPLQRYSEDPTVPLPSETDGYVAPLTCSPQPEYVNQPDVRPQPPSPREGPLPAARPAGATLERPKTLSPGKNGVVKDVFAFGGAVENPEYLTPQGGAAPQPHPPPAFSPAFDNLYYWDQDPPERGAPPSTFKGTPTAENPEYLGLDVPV

[4] = biological target: Alpha-2A adrenergic receptor (Homo sapiens, UniProt P08913); assay: Selectivity interaction (Alpha2A calcium flux assay ) EUB0000877a ADRA2A
Chain of Alpha-2A adrenergic receptor (P08913 whole entry): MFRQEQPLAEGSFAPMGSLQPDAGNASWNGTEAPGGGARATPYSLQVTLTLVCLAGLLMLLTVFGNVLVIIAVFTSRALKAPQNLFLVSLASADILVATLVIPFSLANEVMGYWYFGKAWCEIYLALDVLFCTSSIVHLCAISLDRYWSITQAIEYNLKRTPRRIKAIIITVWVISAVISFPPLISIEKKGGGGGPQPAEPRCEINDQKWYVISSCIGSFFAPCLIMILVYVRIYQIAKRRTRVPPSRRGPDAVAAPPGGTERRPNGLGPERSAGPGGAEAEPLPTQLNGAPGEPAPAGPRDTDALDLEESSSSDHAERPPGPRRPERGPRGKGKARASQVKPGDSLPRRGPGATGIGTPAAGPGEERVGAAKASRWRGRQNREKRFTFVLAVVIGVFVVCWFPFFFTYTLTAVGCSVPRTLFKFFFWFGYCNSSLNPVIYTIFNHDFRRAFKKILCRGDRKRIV

[5] = biological target: Tyrosine-protein kinase HCK (Homo sapiens) (UniProt P08631); settings: at 10 µM
Chain of Tyrosine-protein kinase HCK (Homo sapiens) (P08631 2-526 limits assumed): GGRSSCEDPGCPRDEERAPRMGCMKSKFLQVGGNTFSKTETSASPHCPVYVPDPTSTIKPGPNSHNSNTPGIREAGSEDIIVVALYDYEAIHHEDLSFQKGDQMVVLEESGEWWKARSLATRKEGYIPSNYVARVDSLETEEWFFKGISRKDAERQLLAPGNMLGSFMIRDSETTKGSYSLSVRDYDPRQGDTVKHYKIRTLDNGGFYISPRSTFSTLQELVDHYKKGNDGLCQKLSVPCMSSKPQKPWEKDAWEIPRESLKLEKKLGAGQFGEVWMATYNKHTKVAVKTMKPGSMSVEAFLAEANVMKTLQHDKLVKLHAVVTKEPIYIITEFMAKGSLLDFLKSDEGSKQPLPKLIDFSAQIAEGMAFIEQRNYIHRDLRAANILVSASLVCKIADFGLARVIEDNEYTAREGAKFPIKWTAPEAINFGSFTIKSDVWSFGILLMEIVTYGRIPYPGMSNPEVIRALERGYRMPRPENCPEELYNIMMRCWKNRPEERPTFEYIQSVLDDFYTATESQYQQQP

[6] = biological target: T2, Cytoplasmic tyrosine-protein kinase BMX (Homo sapiens) (UniProt P51813); assay: Selectivity interaction (Kinase panel (Invitrogen)) EUB0000639a BMX; settings: at 200 nM
T2 sequence (whole entry): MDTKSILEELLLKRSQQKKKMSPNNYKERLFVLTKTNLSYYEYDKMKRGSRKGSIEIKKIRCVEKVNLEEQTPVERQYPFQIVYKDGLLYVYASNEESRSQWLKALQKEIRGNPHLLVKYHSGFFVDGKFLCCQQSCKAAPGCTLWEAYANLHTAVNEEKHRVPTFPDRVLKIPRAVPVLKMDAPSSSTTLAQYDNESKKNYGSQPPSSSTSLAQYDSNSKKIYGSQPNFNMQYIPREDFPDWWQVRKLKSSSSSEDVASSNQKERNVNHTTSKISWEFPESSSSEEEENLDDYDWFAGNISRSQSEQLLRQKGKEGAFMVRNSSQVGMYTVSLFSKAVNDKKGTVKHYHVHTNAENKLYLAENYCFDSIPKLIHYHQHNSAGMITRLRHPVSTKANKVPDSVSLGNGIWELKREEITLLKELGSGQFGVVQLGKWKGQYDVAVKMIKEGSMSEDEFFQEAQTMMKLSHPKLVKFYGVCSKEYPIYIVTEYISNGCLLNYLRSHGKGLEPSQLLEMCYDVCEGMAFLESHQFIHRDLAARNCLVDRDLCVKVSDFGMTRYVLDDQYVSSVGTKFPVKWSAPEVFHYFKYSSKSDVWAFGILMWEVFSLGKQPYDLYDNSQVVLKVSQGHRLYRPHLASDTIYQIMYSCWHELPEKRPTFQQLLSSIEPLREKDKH

[7] = biological target: Proto-oncogene tyrosine-protein kinase Src (Homo sapiens, UniProt P12931); assay: Selectivity interaction (ActivX KiNativ screen (kinase selectivity in THP-1 cell lysates)) EUB0000639a SRC; format: subcellular; settings: lysate
Chain of Proto-oncogene tyrosine-protein kinase Src (P12931 2-536 limits assumed): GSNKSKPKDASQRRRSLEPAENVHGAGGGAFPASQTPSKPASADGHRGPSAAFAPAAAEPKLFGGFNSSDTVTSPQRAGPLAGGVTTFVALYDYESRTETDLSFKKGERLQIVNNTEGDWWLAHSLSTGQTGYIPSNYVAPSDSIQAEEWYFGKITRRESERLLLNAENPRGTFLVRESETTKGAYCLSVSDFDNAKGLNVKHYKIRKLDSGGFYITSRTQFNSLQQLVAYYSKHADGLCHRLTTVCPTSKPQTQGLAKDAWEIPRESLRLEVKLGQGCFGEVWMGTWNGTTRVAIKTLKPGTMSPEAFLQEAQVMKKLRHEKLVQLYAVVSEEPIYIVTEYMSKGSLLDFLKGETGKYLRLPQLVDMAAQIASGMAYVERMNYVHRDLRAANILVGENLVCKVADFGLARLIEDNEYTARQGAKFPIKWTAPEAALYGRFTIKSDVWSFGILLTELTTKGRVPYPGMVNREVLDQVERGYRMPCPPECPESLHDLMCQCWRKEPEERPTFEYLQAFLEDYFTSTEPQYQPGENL

[8] = biological target: Ribosomal protein S6 kinase alpha-4 (Homo sapiens) (UniProt O75676); assay: Selectivity interaction (KinomeScan (DiscoverX)) EUB0000595a RPS6KA4; settings: at 10 µM
Chain of Ribosomal protein S6 kinase alpha-4 (Homo sapiens) (O75676 whole entry, looked up): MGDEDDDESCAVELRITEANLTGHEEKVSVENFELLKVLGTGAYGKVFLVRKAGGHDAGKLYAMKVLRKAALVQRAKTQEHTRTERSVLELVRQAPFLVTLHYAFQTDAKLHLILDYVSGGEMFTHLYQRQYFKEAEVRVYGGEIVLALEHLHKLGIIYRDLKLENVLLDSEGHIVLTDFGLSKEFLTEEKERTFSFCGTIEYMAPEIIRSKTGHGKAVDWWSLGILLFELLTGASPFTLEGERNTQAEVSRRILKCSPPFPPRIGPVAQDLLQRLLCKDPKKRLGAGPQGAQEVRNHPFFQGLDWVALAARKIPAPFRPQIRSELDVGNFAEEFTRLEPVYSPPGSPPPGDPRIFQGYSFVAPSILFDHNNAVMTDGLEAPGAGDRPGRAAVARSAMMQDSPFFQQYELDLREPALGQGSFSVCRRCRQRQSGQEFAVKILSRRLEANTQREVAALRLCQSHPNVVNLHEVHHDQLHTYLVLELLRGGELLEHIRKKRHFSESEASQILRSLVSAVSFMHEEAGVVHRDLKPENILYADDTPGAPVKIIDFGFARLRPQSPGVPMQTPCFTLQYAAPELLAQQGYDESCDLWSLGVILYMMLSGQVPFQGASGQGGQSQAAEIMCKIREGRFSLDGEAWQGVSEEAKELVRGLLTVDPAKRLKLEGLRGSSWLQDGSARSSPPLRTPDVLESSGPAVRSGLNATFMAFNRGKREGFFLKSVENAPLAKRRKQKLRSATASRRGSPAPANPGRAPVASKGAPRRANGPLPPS

[9] = biological target: T3, Receptor-interacting serine/threonine-protein kinase 1 (Homo sapiens) (UniProt Q13546); assay: Selectivity interaction (KinomeScan (DiscoverX)) EUB0000618a RIPK1; settings: at 10 µM
T3 sequence (whole entry): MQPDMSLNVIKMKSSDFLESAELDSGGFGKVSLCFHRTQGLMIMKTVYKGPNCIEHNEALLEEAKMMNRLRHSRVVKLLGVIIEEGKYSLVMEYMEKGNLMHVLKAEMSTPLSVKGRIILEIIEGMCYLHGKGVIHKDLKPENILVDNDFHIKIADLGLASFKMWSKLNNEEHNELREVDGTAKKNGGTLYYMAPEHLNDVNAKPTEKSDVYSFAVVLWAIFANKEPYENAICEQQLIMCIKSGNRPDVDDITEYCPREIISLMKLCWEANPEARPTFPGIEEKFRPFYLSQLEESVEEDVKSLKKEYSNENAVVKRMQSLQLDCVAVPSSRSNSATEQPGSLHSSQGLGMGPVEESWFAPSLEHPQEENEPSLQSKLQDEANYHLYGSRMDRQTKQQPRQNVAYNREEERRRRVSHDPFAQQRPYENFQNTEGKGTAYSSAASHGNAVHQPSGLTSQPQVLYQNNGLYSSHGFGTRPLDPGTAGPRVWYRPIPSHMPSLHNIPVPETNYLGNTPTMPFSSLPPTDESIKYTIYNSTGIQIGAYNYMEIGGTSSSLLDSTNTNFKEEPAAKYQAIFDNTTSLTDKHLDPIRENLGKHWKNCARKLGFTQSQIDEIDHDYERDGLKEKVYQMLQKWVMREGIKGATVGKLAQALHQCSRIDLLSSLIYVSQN

[10] = biological target: Serine/threonine-protein kinase mTOR (Homo sapiens, UniProt P42345); assay: Selectivity interaction (ActivX KiNativ screen (ex vivo kinase selectivity in human PBMCs)) EUB0001619a MTOR; format: cell-based; settings: PBMC, at 1 µM
[11] = biological target: Serine/threonine-protein kinase Nek7 (Homo sapiens) (UniProt Q8TDX7); assay: Selectivity interaction (KinomeScan (DiscoverX)) EUB0001619a NEK7; settings: at 1 µM
Chain of Serine/threonine-protein kinase Nek7 (Homo sapiens) (Q8TDX7 whole entry, looked up): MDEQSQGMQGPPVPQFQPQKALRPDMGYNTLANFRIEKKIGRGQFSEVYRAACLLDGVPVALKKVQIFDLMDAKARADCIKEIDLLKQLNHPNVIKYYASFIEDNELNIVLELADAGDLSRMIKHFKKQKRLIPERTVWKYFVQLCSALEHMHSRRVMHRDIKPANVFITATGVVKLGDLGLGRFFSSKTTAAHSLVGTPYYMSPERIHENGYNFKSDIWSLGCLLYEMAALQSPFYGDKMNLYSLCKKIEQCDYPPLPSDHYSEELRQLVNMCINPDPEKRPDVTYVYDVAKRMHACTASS

Compound: COc1cc(N(C)c2ccnc3ccc(C(F)(F)F)cc23)cc(OC)c1OC
- % binding [1]: 82%

Compound: CCC(=O)N1CCN(c2ccc(-n3c(=O)ccc4cnc5ccc(-c6cnc7ccccc7c6)cc5c43)cc2C(F)(F)F)CC1
- % of control [2]: 94%

Compound: CN(C)CCOc1ccc(-c2nc(-c3ccncc3)c(-c3ccc4c(c3)CC/C4=N\O)[nH]2)cc1
- % of control [3]: 40%

Compound: CCC(=O)N1CC[C@H](Nc2ncnc3c2CN(c2cnc(OC)c(C(F)(F)F)c2)CC3)C1 [LENIOLISIB]
- IC50 [4]: > 30 µM

Compound: Cc1cc([C@@H](C)Nc2ccccc2C(=O)O)c2nc(N3CCOCC3)cc(=O)n2c1 [AZD-6482]
- % of control [5]: 100%

Compound: CC[C@@H]1[C@H](F)C(=O)N[C@@H]1COc1nccc2cc(C(N)=O)c(OC)cc12 [ZIMLOVISERTIB]
- % of inhibition [6]: -1.42%
- % of inhibition ([7]; at 0.01 µM): -8.5%
- % of inhibition ([7]; at 0.04 µM): -0.2%
- % of inhibition ([7]; at 0.2 µM): 0.7%
- % of inhibition ([7]; at 1 µM): -11%
- % of inhibition ([7]; at 5 µM): -13.3%

Compound: COCC(=O)NC/C=C/c1ccc2ncnc(Nc3ccc(Oc4ccc(C)nc4)c(C)c3)c2c1 [CP-724714]
- % of control [8]: 100%

Compound: O[C@H]1CC[C@H](Nc2ncc3nc(Nc4c(F)cc(F)cc4F)n([C@H]4CCOC4)c3n2)CC1
- % of control [9]: 100%

Compound: N#Cc1cccc(-c2c[nH]c3ncnc(N4CCOCC4)c23)c1
- % of inhibition [10]: 10%
- % of control [11]: 100%
